{"source": "patent US8609587B2", "about": "“Synergistic herbicidal compositions containing propyzamide and aminopyralid” (Dow AgroSciences, LLC., priority 2010, dated 2013)", "format_in_all_cases": "in vivo", "key": {"[1]": {"test_system": "Matricaria recutita L. (wild chamomile)", "assay": "Field trial in winter oilseed rape, visual weed control, MATCH", "details": "112 to 188 Days after Application", "procedure": "(§1) Field trials were conducted in winter oilseed rape crop using small plot research methodology. The oilseed rape crop was grown using normal cultural practices for the respective area of the trials, using varieties, fertilization and maintenance to ensure normal growth of the crop and the weeds. Plot size was 2 meters (m) wide by 10 m long with 4 replicates by treatment. All treatments were applied preemergence to early postemergence to the weeds using a compressed air backpack sprayer delivering 200 liters per hectare (L/ha) spray volume. Commercially available product of propyzamide/pronamide was mixed with a formulation of aminopyralid potassium at appropriately formulated product rates to achieve the desired rates based on a unit area of application (hectare) to achieve the desired rates as shown. Treatments consisted of propyzamide applied alone, as well as aminopyralid applied alone, and in combination, to measure herbicidal weed control and any synergistic interactions. Treatments were rated at different intervals from treatment to time of evaluation up to the following year when the crop starts to grow again in the spring. The weed efficacy was compared to the untreated control plants. Visual weed control was scored on a scale of 0 to 100 percent where 0 corresponds to no injury and 100 corresponds to complete kill. […]"}, "[2]": {"test_system": "Papaver rhoeas L. (corn poppy)", "assay": "Field trial in winter oilseed rape, visual weed control, PAPRH", "details": "for % Control PAPRH (1) Ob: France, 112 to 188 Days after Application; for % Control PAPRH (2) Ob: Great Britain", "procedure": "(§2) Field trials were conducted in winter oilseed rape crop using small plot research methodology. The oilseed rape crop was grown using normal cultural practices for the respective area of the trials, using varieties, fertilization and maintenance to ensure normal growth of the crop and the weeds. Plot size was 2 meters (m) wide by 10 m long with 4 replicates by treatment. All treatments were applied preemergence to early postemergence to the weeds using a compressed air backpack sprayer delivering 200 liters per hectare (L/ha) spray volume. Commercially available product of propyzamide/pronamide was mixed with a formulation of aminopyralid potassium at appropriately formulated product rates to achieve the desired rates based on a unit area of application (hectare) to achieve the desired rates as shown. Treatments consisted of propyzamide applied alone, as well as aminopyralid applied alone, and in combination, to measure herbicidal weed control and any synergistic interactions. Treatments were rated at different intervals from treatment to time of evaluation up to the following year when the crop starts to grow again in the spring. The weed efficacy was compared to the untreated control plants. Visual weed control was scored on a scale of 0 to 100 percent where 0 corresponds to no injury and 100 corresponds to complete kill. Colby's equation was used to determine the herbicidal effects expected from the mixtures (Colby, S. R. […] Calculation of the synergistic and antagonistic response of herbicide combinations.). The following equation was used to calculate the expected activity of mixtures containing two active ingredients, A and B: […] A=observed efficacy of active ingredient A at the same concentration as used in the mixture; B=observed efficacy of active ingredient B at the same concentration as used in the mixture."}, "[3]": {"test_system": "Viola arvensis Murr. (field violet)", "assay": "Field trial in winter oilseed rape, visual weed control, VIOAR", "details": "112 to 188 Days after Application", "procedure": "as §2"}, "[4]": {"test_system": "Matricaria spp L. (chamomile species)", "assay": "Field trial in winter oilseed rape, visual weed control, MATSS", "details": "93 to 188 Days after Application", "procedure": "as §1"}, "[5]": {"test_system": "Alopecurus myosuroides Huds. (blackgrass)", "assay": "Field trial in winter oilseed rape, visual weed control, ALOMY", "details": "93 to 200 Days after Application", "procedure": "as §2"}, "[6]": {"test_system": "Poa annua L. (annual bluegrass)", "assay": "Field trial in winter oilseed rape, visual weed control, POANN", "details": "Great Britain, 93 to 200 Days after Application", "procedure": "as §2"}, "[7]": {"test_system": "Brassica napus L. ssp. Napus (winter oil seed rape)", "assay": "Field trial, crop tolerance (crop injury) of winter oilseed rape, BRSNW", "details": "167 Days after Application", "procedure": "as §2"}}}
{"smiles": "Nc1cc(Cl)nc(C(=O)O)c1Cl", "note": "[Aminopyralid, 4-amino-3,6-dichloro-2-pyridinecarboxylic acid]", "values": [{"measurement": "% Control MATCH Ob", "setting": "[1]; aminopyralid 6 g ae/ha alone", "result": 80, "unit": "%"}, {"measurement": "% Control PAPRH (1) Ob", "setting": "[2]; aminopyralid 6 g ae/ha alone", "result": 48, "unit": "%"}, {"measurement": "% Control PAPRH (1) Ob", "setting": "[2]; aminopyralid 8 g ae/ha alone", "result": 68, "unit": "%"}, {"measurement": "% Control PAPRH (2) Ob", "setting": "[2]; aminopyralid 6 g ae/ha alone, 93 to 188 Days after Application (Table 2)", "result": 48, "unit": "%"}, {"measurement": "% Control PAPRH (2) Ob", "setting": "[2]; aminopyralid 6 g ae/ha alone, 112 to 188 Days after Application (Table 1)", "result": 0, "unit": "%"}, {"measurement": "% Control PAPRH (2) Ob", "setting": "[2]; aminopyralid 8 g ae/ha alone, 93 to 188 Days after Application (Table 2)", "result": 68, "unit": "%"}, {"measurement": "% Control PAPRH (2) Ob", "setting": "[2]; aminopyralid 8 g ae/ha alone, 112 to 188 Days after Application (Table 1)", "result": 75, "unit": "%"}, {"measurement": "% Control VIOAR Ob", "setting": "[3]; aminopyralid 6 g ae/ha alone", "result": 0, "unit": "%"}, {"measurement": "% Control VIOAR Ob", "setting": "[3]; aminopyralid 8 g ae/ha alone", "result": 0, "unit": "%"}, {"measurement": "% Control MATSS Ob", "setting": "[4]; aminopyralid 10 g ae/ha alone", "result": 48, "unit": "%"}, {"measurement": "% Control ALOMY Ob", "setting": "[5]; aminopyralid 6 g ae/ha alone", "result": 0, "unit": "%"}, {"measurement": "% Control ALOMY Ob", "setting": "[5]; aminopyralid 8 g ae/ha alone", "result": 0, "unit": "%"}, {"measurement": "% Control POANN (1) Ob", "setting": "[6]; aminopyralid 6 g ae/ha alone", "result": 0, "unit": "%"}, {"measurement": "% Control POANN (2) Ob", "setting": "[6]; aminopyralid 6 g ae/ha alone", "result": 0, "unit": "%"}, {"measurement": "% Control POANN (1) Ob", "setting": "[6]; aminopyralid 8 g ae/ha alone", "result": 0, "unit": "%"}, {"measurement": "% Control POANN (2) Ob", "setting": "[6]; aminopyralid 8 g ae/ha alone", "result": 0, "unit": "%"}, {"measurement": "% Crop Injury BRSNW Ob", "setting": "[7]; aminopyralid 6 g ae/ha alone", "result": 23, "unit": "%"}, {"measurement": "% Crop Injury BRSNW Ob", "setting": "[7]; aminopyralid 8 g ae/ha alone", "result": 22, "unit": "%"}]}
{"smiles": "C#CC(C)(C)NC(=O)c1cc(Cl)cc(Cl)c1", "note": "[Propyzamide, 3,5-dichloro-N-(1,1-dimethylpropynyl)benzamide]", "values": [{"measurement": "% Control MATCH Ob", "setting": "[1]; propyzamide 750 g ai/ha alone", "result": 0, "unit": "%"}, {"measurement": "% Control PAPRH (1) Ob", "setting": "[2]; propyzamide 750 g ai/ha alone", "result": 18, "unit": "%"}, {"measurement": "% Control PAPRH (2) Ob", "setting": "[2]; propyzamide 750 g ai/ha alone, 112 to 188 Days after Application (Table 1)", "result": 0, "unit": "%"}, {"measurement": "% Control PAPRH (2) Ob", "setting": "[2]; propyzamide 840 g ai/ha alone, 93 to 188 Days after Application (Table 2)", "result": 11, "unit": "%"}, {"measurement": "% Control VIOAR Ob", "setting": "[3]; propyzamide 750 g ai/ha alone", "result": 27, "unit": "%"}, {"measurement": "% Control MATSS Ob", "setting": "[4]; propyzamide 750 g ai/ha alone", "result": 7, "unit": "%"}, {"measurement": "% Control ALOMY Ob", "setting": "[5]; propyzamide 750 g ai/ha alone", "result": 75, "unit": "%"}, {"measurement": "% Control POANN (1) Ob", "setting": "[6]; propyzamide 750 g ai/ha alone", "result": 22, "unit": "%"}, {"measurement": "% Control POANN (2) Ob", "setting": "[6]; propyzamide 750 g ai/ha alone", "result": 22, "unit": "%"}, {"measurement": "% Control POANN (1) Ob", "setting": "[6]; propyzamide 840 g ai/ha alone", "result": 22, "unit": "%"}, {"measurement": "% Crop Injury BRSNW Ob", "setting": "[7]; propyzamide 750 g ai/ha alone", "result": 0, "unit": "%"}, {"measurement": "% Crop Injury BRSNW Ob", "setting": "[7]; propyzamide 840 g ai/ha alone", "result": 2, "unit": "%"}]}
